# Test results from PubChem BioAssay AID1963834 (Molecular Pharmacology Branch, DTP, NCI, 2024).
# System: 873145-292-R-J1-PDC complex spheroid viability
# Assay: Anticancer human tumor 873145-292-R-J1-PDC patient-derived renal clear cell carcinoma cell line growth inhibition [POLQ]
# Settings: for IC50: curve of first compound; for viability, T/C: stronger effect = lower value
# Method in brief: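 Growth inhibition in 3D: complex spheroids (tumor PDC, HUVEC, MSC) treated with POLQ inhibitor combinations; where Cmax unknown, highest tested concentration 10 microM, except SN-38 at 1 microM.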
# [1] = second compound 0.0316 µM, first compound 0.00316 µM
# [2] = second compound 0.0316 µM, first compound 0.01 µM
# [3] = second compound 0.0316 µM, first compound 0.0316 µM
# [4] = second compound 0.0316 µM, first compound 0.1 µM
# [5] = second compound 0.1 µM, first compound 0.00316 µM
# [6] = second compound 0.1 µM, first compound 0.01 µM
# [7] = second compound 0.1 µM, first compound 0.0316 µM
# [8] = second compound 0.1 µM, first compound 0.1 µM
# [9] = second compound 0.316 µM, first compound 0.00316 µM
# [10] = second compound 0.316 µM, first compound 0.01 µM
# [11] = second compound 0.316 µM, first compound 0.0316 µM
# [12] = second compound 0.316 µM, first compound 0.1 µM
# [13] = second compound 1 µM, first compound 0.00316 µM
# [14] = second compound 1 µM, first compound 0.01 µM
# [15] = second compound 1 µM, first compound 0.0316 µM
# [16] = second compound 1 µM, first compound 0.1 µM
# [17] = second compound 3.16 µM, first compound 0.00316 µM
# [18] = second compound 3.16 µM, first compound 0.01 µM
# [19] = second compound 3.16 µM, first compound 0.0316 µM
# [20] = second compound 3.16 µM, first compound 0.1 µM
# [21] = second compound 10 µM, first compound 0.00316 µM
# [22] = second compound 10 µM, first compound 0.01 µM
# [23] = second compound 10 µM, first compound 0.0316 µM
# [24] = second compound 10 µM, first compound 0.1 µM
# [25] = second compound 0.0316 µM, first compound 0.316 µM
# [26] = second compound 0.0316 µM, first compound 1 µM
# [27] = second compound 0.1 µM, first compound 0.316 µM
# [28] = second compound 0.1 µM, first compound 1 µM
# [29] = second compound 0.316 µM, first compound 0.316 µM
# [30] = second compound 0.316 µM, first compound 1 µM
# [31] = second compound 1 µM, first compound 0.316 µM
# [32] = second compound 1 µM, first compound 1 µM
# [33] = second compound 3.16 µM, first compound 0.316 µM
# [34] = second compound 3.16 µM, first compound 1 µM
# [35] = second compound 10 µM, first compound 0.316 µM
# [36] = second compound 10 µM, first compound 1 µM
# 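Note: spheroids exposed to compounds for 7 days before viability readout.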
# 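Throughout, for viability, T/C: luminescence signal used as surrogate for viable cell content; 100% = DMSO vehicle control viability.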
structure (smiles),measurement,setting,value
CC[C@@]1(O)C(=O)OCc2c1cc1n(c2=O)Cc2cc3c(CN(C)C)c(O)ccc3nc2-1 + COC1C(OC(N)=O)C(O)C(Oc2ccc3c(O)c(NC(=O)c4ccc(O)c(CC=C(C)C)c4)c(=O)oc3c2C)OC1(C)C,IC50,second compound 0.0316 µM,94.4 nM
same,IC50,second compound 0.1 µM,> 100 nM
same,IC50,second compound 0.316 µM,> 100 nM
same,IC50,second compound 1 µM,91.9 nM
same,IC50,second compound 3.16 µM,95.5 nM
same,IC50,second compound 10 µM,> 100 nM
same,"viability, T/C","second compound 0.0316 µM, first compound 0.000316 µM",100%
same,"viability, T/C","second compound 0.0316 µM, first compound 0.001 µM",98.3%
same,"viability, T/C",[1],96.2%
same,"viability, T/C",[2],90%
same,"viability, T/C",[3],91.5%
same,"viability, T/C",[4],47.6%
same,"viability, T/C","second compound 0.1 µM, first compound 0.000316 µM",112%
same,"viability, T/C","second compound 0.1 µM, first compound 0.001 µM",97.6%
same,"viability, T/C",[5],90.8%
same,"viability, T/C",[6],96.3%
same,"viability, T/C",[7],80.6%
same,"viability, T/C",[8],48.9%
same,"viability, T/C","second compound 0.316 µM, first compound 0.000316 µM",104%
same,"viability, T/C","second compound 0.316 µM, first compound 0.001 µM",89.3%
same,"viability, T/C",[9],92.9%
same,"viability, T/C",[10],110%
same,"viability, T/C",[11],81.5%
same,"viability, T/C",[12],53.9%
same,"viability, T/C","second compound 1 µM, first compound 0.000316 µM",98.4%
same,"viability, T/C","second compound 1 µM, first compound 0.001 µM",95.3%
same,"viability, T/C",[13],92.8%
same,"viability, T/C",[14],91%
same,"viability, T/C",[15],80.3%
same,"viability, T/C",[16],47.3%
same,"viability, T/C","second compound 3.16 µM, first compound 0.000316 µM",101%
same,"viability, T/C","second compound 3.16 µM, first compound 0.001 µM",97.8%
same,"viability, T/C",[17],92.7%
same,"viability, T/C",[18],90.9%
same,"viability, T/C",[19],75.1%
same,"viability, T/C",[20],48.6%
same,"viability, T/C","second compound 10 µM, first compound 0.000316 µM",104%
same,"viability, T/C","second compound 10 µM, first compound 0.001 µM",100%
same,"viability, T/C",[21],91.7%
same,"viability, T/C",[22],98.6%
same,"viability, T/C",[23],71.8%
same,"viability, T/C",[24],50.7%
CCc1c2c(nc3ccc(O)cc13)-c1cc3c(c(=O)n1C2)COC(=O)[C@]3(O)CC + COC1C(OC(N)=O)C(O)C(Oc2ccc3c(O)c(NC(=O)c4ccc(O)c(CC=C(C)C)c4)c(=O)oc3c2C)OC1(C)C,IC50,second compound 0.0316 µM,78.8 nM
same,IC50,second compound 0.1 µM,63.7 nM
same,IC50,second compound 0.316 µM,67.8 nM
same,IC50,second compound 1 µM,50.4 nM
same,IC50,second compound 3.16 µM,59.8 nM
same,IC50,second compound 10 µM,82.9 nM
same,"viability, T/C",[1],108%
same,"viability, T/C",[2],86.7%
same,"viability, T/C",[3],58.6%
same,"viability, T/C",[4],47.1%
same,"viability, T/C",[25],40.6%
same,"viability, T/C",[26],28.6%
same,"viability, T/C",[5],96.4%
same,"viability, T/C",[6],92.1%
same,"viability, T/C",[7],53.7%
same,"viability, T/C",[8],48.4%
same,"viability, T/C",[27],36.7%
same,"viability, T/C",[28],26.9%
same,"viability, T/C",[9],103%
same,"viability, T/C",[10],83%
same,"viability, T/C",[11],59.2%
same,"viability, T/C",[12],43.2%
same,"viability, T/C",[29],39.7%
same,"viability, T/C",[30],28.6%
same,"viability, T/C",[13],104%
same,"viability, T/C",[14],87.2%
same,"viability, T/C",[15],58.1%
same,"viability, T/C",[16],36.6%
same,"viability, T/C",[31],39.4%
same,"viability, T/C",[32],28.7%
same,"viability, T/C",[17],99.8%
same,"viability, T/C",[18],77.1%
same,"viability, T/C",[19],57%
same,"viability, T/C",[20],42.2%
same,"viability, T/C",[33],37.6%
same,"viability, T/C",[34],27.2%
same,"viability, T/C",[21],99.7%
same,"viability, T/C",[22],75.4%
same,"viability, T/C",[23],53.4%
same,"viability, T/C",[24],55.4%
same,"viability, T/C",[35],39.2%
same,"viability, T/C",[36],26.2%
COc1cc(C2c3cc4c(cc3C(OC3OC5COC(C)OC5C(O)C3O)C3COC(=O)C23)OCO4)cc(OC)c1O (stereo unspecified) + COC1C(OC(N)=O)C(O)C(Oc2ccc3c(O)c(NC(=O)c4ccc(O)c(CC=C(C)C)c4)c(=O)oc3c2C)OC1(C)C,IC50,second compound 0.0316 µM,> 10000 nM
same,IC50,second compound 0.1 µM,> 10000 nM
same,IC50,second compound 0.316 µM,> 10000 nM
same,IC50,second compound 1 µM,> 10000 nM
same,IC50,second compound 3.16 µM,> 10000 nM
same,IC50,second compound 10 µM,> 10000 nM
same,"viability, T/C",[3],104%
same,"viability, T/C",[4],108%
same,"viability, T/C",[25],103%
same,"viability, T/C",[26],99.1%
same,"viability, T/C","second compound 0.0316 µM, first compound 3.16 µM",80.3%
same,"viability, T/C","second compound 0.0316 µM, first compound 10 µM",57.2%
same,"viability, T/C",[7],112%
same,"viability, T/C",[8],101%
same,"viability, T/C",[27],101%
same,"viability, T/C",[28],96.2%
same,"viability, T/C","second compound 0.1 µM, first compound 3.16 µM",72.5%
same,"viability, T/C","second compound 0.1 µM, first compound 10 µM",53.8%
same,"viability, T/C",[11],114%
same,"viability, T/C",[12],99.4%
same,"viability, T/C",[29],100%
same,"viability, T/C",[30],87.4%
same,"viability, T/C","second compound 0.316 µM, first compound 3.16 µM",72.9%
same,"viability, T/C","second compound 0.316 µM, first compound 10 µM",54.3%
same,"viability, T/C",[15],96.2%
same,"viability, T/C",[16],95.5%
same,"viability, T/C",[31],101%
same,"viability, T/C",[32],86.2%
same,"viability, T/C","second compound 1 µM, first compound 3.16 µM",79%
same,"viability, T/C","second compound 1 µM, first compound 10 µM",53.4%
same,"viability, T/C",[19],107%
same,"viability, T/C",[20],106%
same,"viability, T/C",[33],104%
same,"viability, T/C",[34],86.6%
same,"viability, T/C","second compound 3.16 µM, first compound 3.16 µM",70.9%
same,"viability, T/C","second compound 3.16 µM, first compound 10 µM",57.7%
same,"viability, T/C",[23],103%
same,"viability, T/C",[24],103%
same,"viability, T/C",[35],95.5%
same,"viability, T/C",[36],94.5%
same,"viability, T/C","second compound 10 µM, first compound 3.16 µM",76.7%
same,"viability, T/C","second compound 10 µM, first compound 10 µM",67.2%
